Assay [1] deals with CQ-resistant (W2 clone) strain of P. falciparum. Kind of assay: In vitro antimalarial activity, CQ-resistant strain. Type of assay: cell-based, Plasmodium falciparum. To be noted: for IC50: Plasmodium falciparum, CQ-resistant W2 clone, read-out: P. falciparum (W2 Clone) IC50; for P. falciparum (W2 Clone) S.I.: selectivity index = IC50 cytotoxicity to Vero cells / IC50 antimalarial. An excerpt: (§1) Med. Chem. 2005, 13, 4458; Khan, I. A. Lipids 2004, 37, 169].

The next assay deals with HepG2 cells. The assay can be described thus: In vitro cytotoxicity to mammalian cells, HepG2. It counts as cell-based. To be noted: Homo sapiens.
Excerpt: as §1

For another assay, the system named is LLC-PK-1 cells. Kind of assay: In vitro cytotoxicity to mammalian cells, LLC-PK-1. It counts as cell-based. As to conditions: Sus scrofa, LLC-PK1.
Excerpt: as §1

Another assay has as its system VERO cells. The assay can be described thus: In vitro cytotoxicity to mammalian cells, VERO. To be noted: Chlorocebus sabaeus, Vero; in vitro cytotoxicity to mammalian cells. It counts as cell-based.
Excerpt: as §1

The subject of assay [2] is CQ-sensitive (D6 clone) strain of P. falciparum. The assay can be described thus: In vitro antimalarial activity, CQ-sensitive strain. It counts as cell-based, Plasmodium falciparum. To be noted: for IC50: Plasmodium falciparum, CQ-sensitive D6 clone, read-out: P. falciparum (D6 Clone) IC50; for P. falciparum (D6 Clone) S.I.: selectivity index = IC50 cytotoxicity to Vero cells / IC50 antimalarial.
Excerpt: as §1

The text below walks through data of patent US11026943B2, “Aminoquinoline derivatives and uses thereof” (UNIVERSITY OF DELHI, priority 2012, dated 2021).

A value given as a limit tells only on which side of the number the result lay.

In general, IC50 refers to the concentration that gives 50% inhibition.

In the case of `Cc1cc(Cl)nc(NCCCNc2ccnc3cc(Cl)ccc23)n1` [11b], the IC50 was 1.24 µM in assay [1]; over 60 µM in the assay with HepG2 cells; over 60 µM with LLC-PK-1 cells; over 60 µM with VERO cells; 0.27 µM in assay [2]. The “P. falciparum (W2 Clone) S.I.” value in assay [1] is “(>48)”. For the same molecule, the “P. falciparum (D6 Clone) S.I.” value in assay [2] is given as “(>222)”.
With `Cc1cc(NCCNc2ccnc3cc(Cl)ccc23)nc(Cl)n1` [10a], the IC50 in assay [1] is 0.34 µM; with HepG2 cells it was over 60 µM; in the assay on LLC-PK-1 cells it was over 60 µM; in the assay with VERO cells, over 60 µM; in assay [2], 0.21 µM. For the same molecule, in assay [1], the “P. falciparum (W2 Clone) S.I.” value is recorded as “(>176)”. Moreover, the “P. falciparum (D6 Clone) S.I.” value in assay [2] is recorded as “(>285)”.
`Cc1cc(NCCCCCCNc2ccnc3cc(Cl)ccc23)nc(Cl)n1` [10d]: the IC50 was 0.544 µM in assay [1]; 9.3 µM in the assay with HepG2 cells; 14.8 µM with LLC-PK-1 cells; 34.6 µM in the assay on VERO cells; 0.469 µM in assay [2]. Also, the “P. falciparum (W2 Clone) S.I.” value in assay [1] is 27.2. For the same molecule, the “P. falciparum (D6 Clone) S.I.” value in assay [2] was determined as 73.7.
On to `Cc1cc(Cl)nc(NCCCCCCNc2ccnc3cc(Cl)ccc23)n1` [11d], for which the IC50 is 0.568 µM in assay [1]; 8.1 µM in the assay on HepG2 cells; 23.4 µM in the assay with LLC-PK-1 cells; 55.6 µM in the assay on VERO cells; 0.165 µM in assay [2]. In addition, in assay [1], the “P. falciparum (W2 Clone) S.I.” value is listed as 97.8. Also, the “P. falciparum (D6 Clone) S.I.” value in assay [2] was 336.9.
As to `Cc1cc(Cl)nc(NCCNc2ccnc3cc(Cl)ccc23)n1` [11a], the IC50 in assay [1] is 0.91 µM; in the assay with HepG2 cells it was 43 µM; in the assay on LLC-PK-1 cells, 41.6 µM; in the assay on VERO cells it was 43 µM; in assay [2], 0.27 µM. Moreover, in assay [1], the “P. falciparum (W2 Clone) S.I.” value came to 47.2. In addition, the “P. falciparum (D6 Clone) S.I.” value in assay [2] turned out to be 159.2.
As for `Cc1cc(NCCCCNc2ccnc3cc(Cl)ccc23)nc(Cl)n1` [10c], the concentration for half-maximal inhibition (IC50) was 0.69 µM in assay [1]; over 60 µM with HepG2 cells; over 60 µM with LLC-PK-1 cells; over 60 µM in the assay with VERO cells; 0.151 µM in assay [2]. Also, in assay [1], the “P. falciparum (W2 Clone) S.I.” value was “(>87)”. For the same molecule, in assay [2], the “P. falciparum (D6 Clone) S.I.” value is “(>398)”.
As to `Cc1cc(NCCCNc2ccnc3cc(Cl)ccc23)nc(N2CCCCC2)n1` [12b, N-(7-Chloro-quinolin-4-yl)-N′-(6-methyl-2-piperidin-1-yl-pyrimidin-4-yl)-propane-1,3-diamine], the IC50 was 0.211 µM in assay [1]; over 60 µM in the assay on HepG2 cells; over 60 µM in the assay on LLC-PK-1 cells; over 60 µM in the assay with VERO cells; 0.026 µM in assay [2]. In addition, in assay [1], the “P. falciparum (W2 Clone) S.I.” value was “(>284)”. Besides, in assay [2], the “P. falciparum (D6 Clone) S.I.” value was “(>2300)”.
With `Cc1cc(NCCCNc2ccnc3cc(Cl)ccc23)nc(Cl)n1` [10b], the IC50 in assay [1] is 0.74 µM; with HepG2 cells, over 60 µM; in the assay on LLC-PK-1 cells, over 60 µM; in the assay with VERO cells it was over 60 µM; in assay [2], 0.35 µM. For the same molecule, in assay [1], the “P. falciparum (W2 Clone) S.I.” value is “(>80)”. Moreover, the “P. falciparum (D6 Clone) S.I.” value in assay [2] was “(>170)”.
